What all share (assay type): cell-based
The target in experiment [1] is NMDARs in cultured hippocampal neurons (Rattus norvegicus, UniProt P35439+Q00959). Description: Whole-cell voltage clamp recordings of NMDAR currents in cultured hippocampal/cortical neurons. The conditions noted are these: for Potentiation or depression of NMDAR-currents: tested in a similar fashion as Npam02, FIG. 4c.
Experiment [2] deals with T1, GluN1/GluN2A NMDARs (Rattus norvegicus, UniProt P35439+Q00959).
T1 construct: expressed in transfected cells; host or cells: HEK293
T1 sequence (Q00959 23-1464, other chains not shown): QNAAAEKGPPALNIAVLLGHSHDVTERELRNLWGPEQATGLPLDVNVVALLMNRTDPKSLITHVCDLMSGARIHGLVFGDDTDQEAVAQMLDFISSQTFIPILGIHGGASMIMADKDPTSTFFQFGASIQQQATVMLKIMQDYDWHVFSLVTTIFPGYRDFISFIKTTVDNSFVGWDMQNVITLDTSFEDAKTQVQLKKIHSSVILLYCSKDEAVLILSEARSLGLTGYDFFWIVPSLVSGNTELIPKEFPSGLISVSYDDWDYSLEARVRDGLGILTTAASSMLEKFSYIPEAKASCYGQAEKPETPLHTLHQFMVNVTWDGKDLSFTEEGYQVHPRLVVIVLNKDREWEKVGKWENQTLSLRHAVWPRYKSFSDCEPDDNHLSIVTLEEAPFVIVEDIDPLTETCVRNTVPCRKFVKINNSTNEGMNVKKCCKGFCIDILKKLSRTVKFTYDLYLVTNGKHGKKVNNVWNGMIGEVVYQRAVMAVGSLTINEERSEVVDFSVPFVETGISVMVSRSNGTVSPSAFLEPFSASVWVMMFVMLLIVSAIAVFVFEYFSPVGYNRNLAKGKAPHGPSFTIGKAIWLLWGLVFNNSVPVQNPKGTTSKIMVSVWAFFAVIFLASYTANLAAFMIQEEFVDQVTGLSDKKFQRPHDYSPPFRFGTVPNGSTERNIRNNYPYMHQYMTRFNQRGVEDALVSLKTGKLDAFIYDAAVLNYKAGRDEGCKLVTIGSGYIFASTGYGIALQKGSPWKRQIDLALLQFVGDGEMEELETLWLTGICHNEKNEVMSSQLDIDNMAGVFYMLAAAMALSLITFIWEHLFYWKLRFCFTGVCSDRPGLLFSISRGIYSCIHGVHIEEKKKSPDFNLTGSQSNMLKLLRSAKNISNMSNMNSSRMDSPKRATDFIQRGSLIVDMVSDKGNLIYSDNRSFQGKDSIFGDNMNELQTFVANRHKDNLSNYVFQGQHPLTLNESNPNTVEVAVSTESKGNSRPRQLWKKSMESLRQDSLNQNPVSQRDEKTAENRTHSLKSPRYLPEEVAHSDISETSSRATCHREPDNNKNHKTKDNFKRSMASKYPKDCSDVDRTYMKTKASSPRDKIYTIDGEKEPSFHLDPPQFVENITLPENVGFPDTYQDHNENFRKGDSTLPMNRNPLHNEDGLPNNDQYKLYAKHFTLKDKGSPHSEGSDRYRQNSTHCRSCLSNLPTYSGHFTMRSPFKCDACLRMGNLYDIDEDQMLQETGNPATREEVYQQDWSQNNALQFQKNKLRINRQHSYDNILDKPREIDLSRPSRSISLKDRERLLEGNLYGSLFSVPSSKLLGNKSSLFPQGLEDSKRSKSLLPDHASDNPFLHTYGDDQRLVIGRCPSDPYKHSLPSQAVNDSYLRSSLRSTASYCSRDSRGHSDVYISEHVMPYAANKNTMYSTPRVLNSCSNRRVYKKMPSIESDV
Description: Whole-cell patch clamp recordings in HEK293 cells transfected with GluN1/GluN2A. The conditions noted are these: for activation at 100 µM / activation at 50 µM: HEK293, Table 2, read-out: Normalized Potentiation GluN1/GluN2A; for activation at 50 µM: 50 μM (footnote *). The procedure:
Cells were transfected with a combination of pcDNA3-CMV expression vectors, each of which expressed one of the rat recombinant (GluN2AWT, GluN1WT, GluN2BWT) subunits. The sequences of all plasmids were confirmed by automated DNA sequencing. Human Embryonic Kidney 293 (HEK293 cells) were cultured in Dulbecco's Modified Eagle's Medium (DMEM) (Invitrogen) supplemented with 10% fetal bovine serum (FBS). When HEK293 cells achieved 90% confluence, plasmids of either GluN1 & GluN2A or GluN1 & GluN2B were co-transfected into the cells using Lipofectamine 2000 (Invitrogen, 11668019) according to manufacturer's instructions. HEK293 cells were then maintained in the 37° C. incubator with […] and 5% CO2 for 48 hrs before being used in experiments. The transfection ratios for the NMDAR subunit combinations were all 1:1 (GluN1/GluN2A or GluN1/GluN2B).
Whole cell patch-clamp recordings were performed under voltage-clamp mode using an Axopatch 200B or 1D patch-clamp amplifier (Molecular Devices). Whole-cell currents were recorded at a holding potential of −60 mV unless indicated elsewhere, and signals were filtered at 2 kHz, digitized at 10 kHz (Digidata 1322A). Recording pipettes (3-5 MΩ) were filled with intracellular solution containing (mM): CsCl 140, HEPES 10, Mg-ATP 4, QX-314 5, pH 7.20; osmolarity, 290-295 mOsm. BAPTA (10 mM) was added in the intracellular solution (unless otherwise specified). The coverslips were continuously superfused with extracellular solution containing (mM): NaCl 140, KCl 5.4, HEPES 10, CaCl2 1.3, glucose 20, pH 7.4; osmolarity, 305-315 mOsm. NMDA-induced currents were applied by NMDA through perfusion fast-step (Warner Instruments). With perfusion fast-step system, NMDA application was achieved by using a two-square barrel glass tubing and depending on the age of the cultured neurons, CNQX (10 μM), TTX (0.5 μM) or BIC (10 μM) were added in the extracellular solution to minimize the activation of ionotropic glutamate receptors and voltage-gated sodium channels, respectively. All experiments were performed at room temperature. Recordings from at least six HEK293 cells/neurons were performed for all active compounds. Data were pooled among HEK293 cells or primary neurons and composite dose-response data were fitted by the equation Percentage Response=100×Relative Efficacy/[1+(EC50/Concentration)nH], where EC50 is the concentration of agonist that produces a half-maximal response, relative efficacy is the response at maximally effective concentration relative to the maximal response of glutamate, and nH is the Hill slope.
GluN1/GluN2A NMDAR subtypes are an attractive target for positive allosteric modulation. The present inventors employed in silico computational drug discovery methods to conduct a virtual screen of purchasable lead-like compounds from the ZINC database (Irwin, J., et al. Abstr Pap Am Chem Soc (2005) 230:U1009) and some synthetic compounds to identify potential GluN1/GluN2A-NMDAR modulators. The in silico methods included large-scale docking against the interstice interface of the GluN1/GluN2A heterodimer and consensus scoring to select compounds for empirical testing. Candidate compounds were further screened by using GluN1/GluN2A transiently transfected in human embryonic kidney (HEK293) cells and tested by whole-cell patch clamp recordings.
The inventors used transiently transfected HEK293 cells expressing either GluN1/GluN2A or GluN1/GluN2B NMDARs and tested by whole-cell voltage patch clamp recordings to see whether selected compounds were controlling the subtype selectivity profile of the drugs.
Whole-cell patch clamp recordings were performed to measure glutamate evoked currents with chloride-based pipette solutions at a holding potential of −60 mV.

The target in experiment [3] is T2, GluN2A NMDARs in GluN2B-lacking neurons (Mus musculus, UniProt P35436+P35438).
T2 construct: endogenous in cells; host or cells: primary cortical neurons from GluN2B-knockout mouse embryos
Description: Whole-cell recordings in GluN2B-knockout cortical neurons. Conditions: 0.2 μM with NMDA 20 μM; conditional GluN2B-knockout neurons.

In experiment [4] the target is T3, GluN1/GluN2B NMDARs (Rattus norvegicus, UniProt P35439+Q00960).
T3 construct: expressed in transfected cells; host or cells: HEK293
T3 sequence (Q00960 27-1482, other chains not shown): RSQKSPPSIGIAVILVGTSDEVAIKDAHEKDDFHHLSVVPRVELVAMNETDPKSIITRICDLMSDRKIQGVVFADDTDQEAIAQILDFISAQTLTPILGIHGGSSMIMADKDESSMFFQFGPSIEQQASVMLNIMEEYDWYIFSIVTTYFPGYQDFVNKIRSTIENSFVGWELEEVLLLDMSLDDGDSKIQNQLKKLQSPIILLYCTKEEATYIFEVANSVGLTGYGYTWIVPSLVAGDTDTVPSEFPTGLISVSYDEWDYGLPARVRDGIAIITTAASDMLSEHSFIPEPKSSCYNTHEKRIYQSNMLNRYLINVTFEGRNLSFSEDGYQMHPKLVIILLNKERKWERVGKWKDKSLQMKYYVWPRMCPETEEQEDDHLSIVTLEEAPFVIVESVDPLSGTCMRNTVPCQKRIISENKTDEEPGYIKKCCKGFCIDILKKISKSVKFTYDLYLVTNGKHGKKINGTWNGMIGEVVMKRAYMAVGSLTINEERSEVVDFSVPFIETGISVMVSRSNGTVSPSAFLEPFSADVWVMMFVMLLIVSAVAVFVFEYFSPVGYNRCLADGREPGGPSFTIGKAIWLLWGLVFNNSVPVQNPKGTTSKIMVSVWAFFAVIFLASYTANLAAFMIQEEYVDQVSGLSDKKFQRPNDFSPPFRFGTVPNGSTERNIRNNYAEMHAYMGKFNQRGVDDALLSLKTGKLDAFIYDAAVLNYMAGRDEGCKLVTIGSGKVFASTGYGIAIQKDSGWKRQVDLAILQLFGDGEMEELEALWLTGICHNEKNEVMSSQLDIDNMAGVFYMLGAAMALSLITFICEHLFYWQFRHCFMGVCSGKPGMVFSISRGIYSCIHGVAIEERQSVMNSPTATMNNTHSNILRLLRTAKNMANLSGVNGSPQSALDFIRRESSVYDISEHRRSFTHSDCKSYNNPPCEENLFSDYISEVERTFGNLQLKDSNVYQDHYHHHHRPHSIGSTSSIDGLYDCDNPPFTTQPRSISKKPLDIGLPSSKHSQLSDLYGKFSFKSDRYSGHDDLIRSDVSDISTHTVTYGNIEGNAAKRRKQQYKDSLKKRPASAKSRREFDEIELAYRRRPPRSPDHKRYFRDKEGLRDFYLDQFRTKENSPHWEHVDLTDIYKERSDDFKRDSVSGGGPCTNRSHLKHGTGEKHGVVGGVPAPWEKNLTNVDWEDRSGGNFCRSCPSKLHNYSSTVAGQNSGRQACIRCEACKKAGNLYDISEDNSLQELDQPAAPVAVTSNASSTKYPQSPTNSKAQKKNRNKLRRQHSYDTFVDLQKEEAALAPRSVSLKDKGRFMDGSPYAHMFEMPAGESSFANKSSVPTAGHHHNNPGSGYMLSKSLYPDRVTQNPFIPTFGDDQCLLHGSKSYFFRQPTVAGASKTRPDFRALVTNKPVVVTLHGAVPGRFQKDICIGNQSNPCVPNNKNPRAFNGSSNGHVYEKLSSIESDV
Briefly: Whole-cell patch clamp recordings in HEK293 cells transfected with GluN1/GluN2B. Conditions: HEK293, Table 2, read-out: Normalized Potentiation GluN1/GluN2B; for activation at 50 µM: 50 μM (footnote *).

NMDARs in cultured hippocampal neurons, sequence (Q00959 23-1464, other chains not shown): as the sequence (Q00959 23-1464, other chains not shown) above

As to `N[C@@H](CCCP(=O)(O)O)C(=O)O` [APV, reference compound], the Block of currents entry in experiment [1] (50 μM) is listed as “blocked all currents”.
As to `CN[C@H](CC(=O)O)C(=O)O` [NMDA, reference compound], the “pEC50 of NMDA dose-response curve” value in experiment [1] (cultured hippocampal neurons, FIG. 13) was 1.484±0.082 μM. In addition, the EC50 in experiment [1] (cultured hippocampal neurons, FIG. 13, read-out: EC50 of NMDA dose-response curve) turned out to be 30.5 ± 11.7 µM.
Take `C[C@H](NC(c1cccc2[nH]c(=O)c(=O)[nH]c12)P(=O)(O)O)c1ccc(Br)cc1` (stereo partly drawn) [NVP-AAM007, reference compound]: the “Block of the Npam02-increased NMDAR currents” value in experiment [2] (0.2 μM co-applied with both co-agonists) is on record as “completely blocked”. Further, in experiment [3], the “Block of NMDAR-currents” value is 90.73±1.11%.
On to `O=C(N/N=C/c1cccc(O)c1O)c1ccccc1` [Npam01, (E)-N′-(2,3-dihydroxybenzylidene)benzohydrazide], for which the figures for the activation at 100 µM in experiment [2] and in experiment [4] were 26.2 ± 2.24% and -28 ± 5.11%, respectively. The “Normalized Potentiation” value in experiment [2] (Table 1, positive modulation of GluN1/GluN2A NMDARs, concentration not given) is 2.61 ± 9.69%. For the same compound, in experiment [1], the “Potentiation or depression of NMDAR-currents” value is “no observable potentiation or depression effect”.
On to `Cc1ccccc1C(=O)N/N=C/c1cccc(O)c1O` [Npam04, (E)-N′-(2,3-dihydroxybenzylidene)-2-methylbenzohydrazide], for which the results for the activation at 100 µM in experiment [2] and in experiment [4] were 33.7 ± 4.84% and -54.6 ± 5.48%, respectively. Besides, in experiment [1], the “Potentiation or depression of NMDAR-currents” value is listed as “no observable potentiation or depression effect”.
As for `O=C(N/N=C/c1cccc(O)c1O)c1ccc(O)cc1` [Npam68, (E)-N′-(2,3-dihydroxybenzylidene)-4-hydroxybenzohydrazide], the values for the activation at 50 µM in experiment [2] and in experiment [4] were 35.1 ± 4.85% and -56.6 ± 7.45%, respectively.
For `COc1cccc(/C=N/NC(=O)c2ccccc2)c1O` [Npam69, (E)-N′-(2-hydroxy-3-methoxybenzylidene)benzohydrazide] the same measures were 11.1 ± 1.98% and -34 ± 2.47%.
For `O=C(N/N=C/c1cccc(O)c1O)c1cc(O)cc(O)c1` [Npam70, (E)-N′-(2,3-dihydroxybenzylidene)-3,5-dihydroxybenzohydrazide] the same measures were -24.1 ± 2.47% and -45.6 ± 3.67%.
For `Cc1cccc(C(=O)N/N=C/c2cccc(O)c2O)c1` [Npam71, (E)-N′-(2,3-dihydroxybenzylidene)-3-methylbenzohydrazide] the same measures were 41.7 ± 6.78% and -48.6 ± 4.77%.
As to `COc1cc([N+](=O)[O-])cc(/C=N/NC(=O)c2ccccc2C)c1O` [Npam72, (E)-N′-(2-hydroxy-3-methoxy-5-nitrobenzylidene)-2-methylbenzohydrazide], the “Selectivity for GluN1/GluN2A versus GluN1/GluN2B NMDARs” value in experiment [2] (FIG. 2, HEK293 cells expressing GluN1/GluN2A and GluN1/GluN2B) was “selective for GluN1/GluN2A NMDARs”. The activation at 100 µM in experiment [2] is 118 ± 18.5%; in experiment [4], -24.2 ± 4.55%.
With `O=C(N/N=C/c1cccc(O)c1O)c1ccc(Br)cc1` [Npam73, (E)-4-bromo-N′-(2,3-dihydroxybenzylidene)benzohydrazide], the activation at 50 µM in experiment [2] is 30.7 ± 4.76%; in experiment [4], -49.9 ± 6.87%.
With `COc1cc(Cl)cc(/C=N/NC(=O)c2ccccc2Br)c1O` [Npam75, (E)-2-bromo-N′-(5-chloro-2-hydroxy-3-methoxybenzylidene)benzohydrazide], the activation at 100 µM in experiment [2] is 57.2 ± 3.78%; in experiment [4] it was -17 ± 2.14%.

These data come from patent US11166924B2, “N-methyl-d-aspartate receptor allosteric modulators and methods for their use” (Qingdao Primedicine Pharmaceutical Company, Ltd., priority 2016, dated 2021).
